One may read the Solubility as the dissolved amount per volume that the medium holds.

Data set [1] in a line: Solubility of compound (1) in ethanol/water (2:1). The format is physicochemical. Conditions: 40° C., stirred one hour, listed as V (form A). On the procedure: Samples of compound (1) (5 g) were suspended in ethanol/water (2:1, 100 mL) and stirred for one hour at temperatures of 22° C., 30° C., and 40° C., respectively. The suspensions were filtered and the solids dried in a vacuum oven at room temperature overnight to give the insoluble material. The solubilities were calculated by subtractive means based on recovered material.

Data set [2] in a line: Solubility compared to other polymorphs (solvent not given). The format is physicochemical.
Data set [3] has as its system asthma and allergic diseases. Nature of the data set: Oral activity for treatment of asthma and allergic diseases. It counts as in vivo.

Converted amounts (≈) assume the structure as drawn. Where two headings read alike, the source gives them in different places.

As to `CCCc1c(SCCCOc2ccc(C(C)=O)c(OCCCC(=O)O)c2CCC)ccc(C(C)=O)c1O` [Form V, 4-[6-acetyl-3-[3-(4-acetyl-3-hydroxy-2-propylphenylthio)propoxy]-2-propylphenoxy]butyric acid], in data set [1], the Solubility amounted to 46 mg/mL (≈ 86.7 mM). Also, the “solubility compared to other crystalline forms” value was “superior” in data set [2] and “high” in data set [2] (listed as form A).
As to `CCCc1c(SCCCOc2ccc(C(C)=O)c(OCCCC(=O)O)c2CCC)ccc(C(C)=O)c1O` [compound (1), 4-[6-acetyl-3-[3-(4-acetyl-3-hydroxy-2-propylphenylthio)propoxy]-2-propylphenoxy]butyric acid], the “oral activity for treatment of asthma and allergic diseases” value in data set [3] is given as “orally active”.

(Values after US7728169B2, “Pharmaceutical compositions of isolated orthorhombic crystalline 4-[6-acetyl-3-[3-(4-acetyl-3-hydroxy-2-propylphenylthio)propoxy]-2-propylphenoxy]butyric acid and methods of use” (Medicinova, Inc., priority 2003, dated 2010).)
